Results as given in patent publication US20110300115A1, “USE OF INDUCTOR AGENTS GSE24.2 FOR PRODUCING PHARMACEUTICAL COMPOSITIONS FOR TREATING ILLNESSES RELATING TO CELLULAR SENESCENCE” (priority 2007, published 2011).

Columns and labels:
hTR promoter = assay: hTR-luc reporter, 293T cells; assay type: cell-based, human; details: luciferase 24 h after transfection
Method: Also, cisplatinum stimulates the promoter's activity in GSE24-2 cells more than in the control cells (FIG. 2B). […] No effect was observed of the expression of GSE24-2 on the promoter hTR^9 using cells expressing DKC or GSE24-2 (FIG. 2C).
Transfection and analysis of gene expression. The 293T cells were transfected transiently using the calcium phosphate method, as described previously^39. The total amount of DNA was maintained constant at 10 μg per million cells. The X-DC cells were transfected transiently by electroporation with 3 μg of pLNCX-GSE24-2 per million cells. The cells VA13 MEFs were transfected with […] of DNA/per million cells using lipofectamine plus (Invitrogen), following the manufacturer's instructions. The protein extracts were prepared and luciferase measured using a commercial kit (Promega). Each test was carried out in triplicate and the experiments were repeated three times. The efficiency of transfection was corrected by co-transfection of the plasmid p-CMV-Renilla.

[1] = system: telomerase activity of 293T cell extracts; assay: in vitro test of telomerase activity inhibition using cisplatinum (TRAP assay, telomeric probe); assay type: biochemical; details: 293T cell extracts and telomere probe treated in vitro with cisplatinum; rising amounts of peptide
Method: This description for the first time describes use of the previously described peptide GSE 24.2 in an in vitro test of telomerase activity inhibition using cisplatinum with cell extracts from 293T cells and a telomere probe treated with cisplatinum. […] Additionally, the possible bond of the peptide GSE24-2 to the telomere sequence was analysed using gel shift tests, with an oligonucleotide that forms a loop (TEL1) which reconstructs the double chain sequence of the telomere with a small 3′ hanging sequence^41.
Production and purification of the peptide GSE24-2: The DH5α cells of E. coli were transformed with the vector pGATEV GSE24-2 and the lysates were prepared as described previously^33. The fusion protein was purified with glutathione-sepharose and the purity was analysed by means of gel electrophoresis. The GSE24-2 was obtained following digestion with the protease TEV following the manufacturer's instructions. Routinely, 90% was obtained of the digested protein according to what was obtained in SDS-PAGE electrophoresis. The protein was passed twice through a Hi-Trap Ni-NTA column in order to discard polyhistidine tails, undigested protein, TEV protease, and impurities.
Telomere repeat amplification protocol (TRAP). Telomerase activity was measured using the TRAPeze^37 telomerase detection kit (Intergen, Purchase, USA) following the manufacturer's instructions. […]

Molecule	activity of the hTR promoter (hTR promoter)	telomerase activity of extracts under inhibition by cisplatinum [1]
O=C1c2ccccc2-c2n[nH]c3cccc1c23 [SP60125]	capable of activating the activity of this promoter	–
peptide GSE24-2: purified peptide GSE24-2 (SEQ ID NO2), fragment of dyskerin, produced in E. coli as fusion protein and cleaved with TEV protease (GFINLDKPSNPSSHEVVAWIRRILRVEKTGHSGTLDPKVTGCLIVCIERATRLVK; listed as Homo sapiens)	–	protect the telomerase activity of the extracts
